This assay concerns neural stem cell line, CTX0E03. Kind of assay: Hypothermic / ambient shelf-life viability studies (trypan blue exclusion). It counts as cell-based, human. As to conditions: in saline solution at ambient temperature. How it is done:
Cultures of cells were expanded in T-flasks until 70 to 90% confluent. The spent medium was aspirated and then the cell monolayer washed with HBSS without magnesium or calcium ions (Invitrogen). The wash was aspirated and then the cells dissociated with recombinant bovine trypsin (Lonza TrypZean/EDTA) for 5 minutes at 37° C. The dissociated cell suspension was mixed with a trypsin inhibitor solution (0.55 mg/ml soybean trypsin inhibitor [Sigma], 1% HSA [Grifols], 25 U/ml benzon nuclease [VWR] in DMEM:F12 [Invitrogen]) and centrifuged for 5 minutes at ˜500×g. The supernatant was aspirated and the cell pellet washed in 50% HypoThermosol®-FRS (BioLife Solutions, Inc) in DMEM:F12 followed by centrifugation at ˜500×g for 5 minutes. The cell pellet was then suspended in HypoThermosol®-FRS at a concentration of 40,000 to 60,000 cells/μl. […]
Shelf-life studies have assessed the viability of the therapeutic and commercially manufactured neural stem cell line, CTX0E03 (Pollock et al., 2006), formulated in saline or using the method described in this invention using HTS-FRS. […]
Samples of cells were mixed 1:1 with 0.4% Trypan blue (Sigma) and loaded onto a haemocytometer. […] The viability and concentration of the sample is determined by counting the cells within a grid of the haemocytometer using 10× objective phase-contrast microscopy.

Consider `Cc1c(C)c2c(c(C)c1O)CCC(C)(C(=O)O)O2` (stereo not shown) [Trolox], for which the “time neural stem cells are preserved” value is listed as 2 days.
